Legend:
Experiment in all cases: 3D clonogenic assay in patient derived organoids
Assay type in all cases: cell-based, human
[1] = system: CXF1256 organoid, colon cancer; settings: for Combination activity 5 μM Compound 1 (cAUC % reduction): chemotherapy dose titration + 5 μM Compound 1 vs chemotherapy alone; for Combination activity 20 μM Compound 1 (cAUC % reduction): chemotherapy dose titration + 20 μM Compound 1 vs chemotherapy alone
Experimental: (§1) Five tumor cell lines (4T1.2, A549, EMT6, NCI-H460, and HT29) were treated with a range of paclitaxel or 5-FU concentrations in the presence of dimethlylsulfoxide (DMSO), 5 μM Compound 1, or 20 μM Compound 1. Cells were imaged 4 days after treatment and percent confluence was assessed by image quantification. EC50 values for cell confluence were used to assess chemotherapy potency. Eleven patient-derived tumor organoids (MAXFTN449, MAXFTN2990, PAXF1657, PAXF2131, CXF1256, CXF2129, CXF2061, LXFE2478, LXFE690, LXFA677, LXFA644) were seeded in a 3D matrix and treated with a range of paclitaxel, 5-FU, SN38, Gemcitabine, oxaliplatin, and carboplatin concentrations in the presence of DMSO, 5 μM Compound 1, or 20 μM Compound 1. After 8 to 13 days in culture, colonies were stained, imaged, and counted. A dose response curve was generated for chemotherapy alone or chemotherapy in combination with 5 or 20 μM Compound 1. Combination activity was defined as a percentage of the area under the chemotherapy dose response curve (cAUC) for Compound 1 combination groups compared to the cAUC of chemotherapy alone.
(§2) For combination experiments, working stock solutions of all compounds were prepared in DMSO at concentrations of 660-fold the highest test concentration used and stored at −20° C. Platin compounds were prepared freshly on each treatment day. On each day of an experiment, an aliquot of the working stock solutions was used and stored at room temperature prior to and during treatment. First, 1:2 dilutions of 660-fold concentrated working stocks were prepared in DMSO (in case of monotherapy controls), or equal amounts of the compound working stocks were mixed (in case of drug combinations). Then, different dilutions of these 330-fold concentrated solutions were prepared in DMSO to give an 8×2 matrix combination layout with conditions. The DMSO dilutions were further diluted […] into cell culture medium (IMDM, supplemented with 20% (v/v) fetal bovine serum, and 50 μg/mL gentamicin) in an intermediate dilution plate. Finally, 10 μL taken from the intermediate dilution plate were transferred to 140 μL of cells and medium per well of the final assay plate. Thus, the DMSO dilutions used for the mono- and the combination-treatment were diluted 1:660, and the DMSO concentration in the assay was […].
(§3) Tumors were passaged as subcutaneous xenografts in NMRI nu/nu mice. At a tumor volume of 400 to 1000 mm^3, tumor-bearing mice were euthanized, and tumors were collected under sterile conditions without delay. Tumors were mechanically disaggregated and subsequently incubated with an enzyme cocktail consisting of collagenase type IV (41 U/mL), DNase I (125 U/mL), hyaluronidase type III (100 U/mL), and dispase II (1 U/mL) in RPMI 1640 medium at 37° C. for 60 to 120 minutes. Cells were passed through sieves of 100 μm and 40 μm mesh size, and washed with RPMI 1640 medium. The percentage of viable cells was determined in a Neubauer-hemocytometer using trypan blue exclusion. Aliquots of the cells were frozen down and stored in liquid nitrogen vapor phase. On each day of an experiment, a frozen aliquot of tumor cells was thawed and used for preparation of assay plates.
(§4) The clonogenic assay was carried out in a 96 well plate format using ultra low attachment plates. For each test, plates were prepared as follows: each test well contained a layer of semi-solid medium with tumor cells (50 μL), and a second layer of medium supernatant with or without test compound (100 μL). The cell layer consisted of […] to 12.5×10^3 tumor cells per well, which were seeded in 50 μL/well cell culture medium (IMDM, supplemented with 20% (v/v) fetal bovine serum, 50 μg/mL gentamicin, and 0.4% (w/v) agar). After 24 hours, the soft-agar layer was covered with 90 μL of the same culture medium without agar, and 10 μL of control medium or test compound after serial dilution in DMSO for the duration of the experiment (continuous exposure, 100 μL drug overlay).

[2] = system: CXF2061 organoid, colon cancer; settings: for Combination activity 5 μM Compound 1 (cAUC % reduction): chemotherapy dose titration + 5 μM Compound 1 vs chemotherapy alone; for Combination activity 20 μM Compound 1 (cAUC % reduction): chemotherapy dose titration + 20 μM Compound 1 vs chemotherapy alone
Experimental: as §1, §2, §3, §4

[3] = system: CXF2129 organoid, colon cancer; settings: for Combination activity 5 μM Compound 1 (cAUC % reduction): chemotherapy dose titration + 5 μM Compound 1 vs chemotherapy alone; for Combination activity 20 μM Compound 1 (cAUC % reduction): chemotherapy dose titration + 20 μM Compound 1 vs chemotherapy alone
Experimental: as §1, §2, §3, §4

[4] = system: LXFE2478 organoid, NSCLC (squamous subtype); settings: for Combination activity 5 μM Compound 1 (cAUC % reduction): chemotherapy dose titration + 5 μM Compound 1 vs chemotherapy alone
Experimental: as §1, §2, §3, §4

[5] = system: LXFE690 organoid, NSCLC (squamous subtype)
Experimental: as §1, §2, §3, §4

[6] = system: LXFA677 organoid, NSCLC (adenocarcinoma subtype)
Experimental: as §1, §2, §3, §4

[7] = system: LXFA644 organoid, NSCLC (adenocarcinoma subtype)
Experimental: as §1, §2, §3, §4

[8] = system: MAXFTN449 organoid, breast cancer (triple negative)
Experimental: as §1, §2, §3, §4

[9] = system: MAXFTN2990 organoid, breast cancer (triple negative)
Experimental: as §1, §2, §3, §4

[10] = chemotherapy dose titration + 20 μM Compound 1 vs chemotherapy alone
[11] = chemotherapy dose titration + 5 μM Compound 1 vs chemotherapy alone

Compound | Combination activity 5 μM Compound 1 (cAUC % reduction) [1] | Combination activity 20 μM Compound 1 (cAUC % reduction) [1] | Combination activity 5 μM Compound 1 (cAUC % reduction) [2] | Combination activity 20 μM Compound 1 (cAUC % reduction) [2] | Combination activity 5 μM Compound 1 (cAUC % reduction) [3] | Combination activity 20 μM Compound 1 (cAUC % reduction) [3] | Combination activity 5 μM Compound 1 (cAUC % reduction) [4] | Combination activity 5 μM Compound 1 (cAUC % reduction) ([4]; listed as gemcitabine) | Combination activity 20 μM Compound 1 (cAUC % reduction) [4, 10] | Combination activity 5 μM Compound 1 (cAUC % reduction) [5, 11] | Combination activity 20 μM Compound 1 (cAUC % reduction) [5, 10] | Combination activity 5 μM Compound 1 (cAUC % reduction) [6, 11] | Combination activity 20 μM Compound 1 (cAUC % reduction) [6, 10] | Combination activity 5 μM Compound 1 (cAUC % reduction) [7, 11] | Combination activity 20 μM Compound 1 (cAUC % reduction) [7, 10] | Combination activity 5 μM Compound 1 (cAUC % reduction) [8, 11] | Combination activity 20 μM Compound 1 (cAUC % reduction) [8, 10] | Combination activity 5 μM Compound 1 (cAUC % reduction) [9, 11] | Combination activity 20 μM Compound 1 (cAUC % reduction) [9, 10]
O=C1[O][Pt]2([NH][C@@H]3CCCC[C@H]3[NH]2)[O]C1=O [Oxaliplatin, oxaliplatin] | 70% | 63% | 13% | −18% | 37% | 9% |  |  |  |  |  |  |  |  |  |  |  |  | 
Nc1ccn([C@@H]2O[C@H](CO)[C@@H](O)C2(F)F)c(=O)n1 [Gemcitabine, gemcitabine] |  |  |  |  |  |  | 41% | 41% | 30% | 59% | 61% | 7% | 15% | 3% | 20% |  |  |  | 
CCc1c2c(nc3ccc(O)cc13)-c1cc3c(c(=O)n1C2)COC(=O)[C@]3(O)CC [SN38] | 90% | 91% | 22% | 26% | 44% | 33% |  |  |  |  |  |  |  |  |  | 58% | 46% | 57% | 74%

Source: US20240165112A1, “THERAPY FOR THE TREATMENT OF CANCER” (Bristol-Myers Squibb Company, priority 2022, published 2024)
